One data set deals with T1, HIV-1 RT (Human immunodeficiency virus type 1 group M subtype B, UniProt P03367).
T1 construct: Reverse transcriptase enzyme from the LAV strain of Human Immunodeficiency Virus (HIV-1) (1) was isolated from the bacterial strain JM109; made in house; host or cells: E. coli JM109, clone pBRTprtl+ in vector pIBI21 (lac promoter, IPTG induction)
Briefly: Reverse Transcriptase (RT) Assay: inhibition of RNA-dependent DNA polymerase activity. The data set is classed as biochemical. More on the design: RT Inhibition % @ 10 »g/ml: tested at 10 µg/ml. As to conditions: for RT Inhibition % @ 10 »g/ml: poly r(C)/oligo d(G) template, ³H-dGTP, 60 minutes at room temperature; for inhibition at 1 µM: compound at 1 »M (footnote *), read-out: RT Inhibition % (* % inh. @ 1 »M). The text has this:
Utilizing the Reverse Transcriptase (RT) Assay described below, compounds can be tested for their ability to inhibit the RNA-dependent DNA polymerase activity of HIV-1 RT. Certain specific compounds described in the Examples which appear below, were so tested.
Among the enzymes for which Human Immunodeficiency Virus (HIV-1) encodes is a reverse transcriptase (1), so-named because it transcribes a DNA copy from an RNA template. This activity can be quantitatively measured in a cell-free enzyme assay, which has been previously described (2), and is based upon the observation that reverse transcriptase is able to use a synthetic template [poly r(C) primed with oligo d(G)] to transcribe a radio-labelled, acid-precipitable DNA strand utilizing ³H-dGTP as a substrate.
Reverse transcriptase enzyme from the LAV strain of Human Immunodeficiency Virus (HIV-1) (1) was isolated from the bacterial strain JM109 (3) expressing the DNA clone pBRTprtl+ (2) which is under the control of the lac promotor in the expression vector pIBI21 (4). An overnight culture grown in 2XYT medium (37°C, 225 rpm) (5) supplemented with 100 »g/ml ampicillin for positive selection is inoculated at a 1:40 dilution into M9 medium supplemented with 10»g/ml thiamine, 0.5% casamino acids, and 50 »g/ml ampicillin (5). The culture is incubated (37°C, 225 rpm) until it reaches an OD540 of 0.3-0.4. At that time the repressor inhibitor IPTG (isopropyl β-D-thiogalactopyranoside) is added to 0.5mM, and the mixture is incubated for 2 additional hours. Bacteria are pelleted, resuspended in a 50mM Tris, 0.6mM EDTA, 0.375M NaCl buffer and digested by the addition of lysozyme (1mg/ml) for 30 minutes on ice. The cells are lysed by the addition of 0.2% NP-40 and brought to 1M NaCl.
After removal of the insoluble debris by centrifugation, the protein is precipitated by the addition of 3 volumes of saturated aqueous ammonium sulfate. The enzyme is pelleted, resuspended in RT buffer (50mM Tris pH 7.5, 1mM EDTA, 5mM DTT, 0.1% NP-40, 0.1M NaCl, and 50% glycerol), and stored at -70°C for further use.
The 2X concentrated stock reaction mixture is aliquoted and stored at -20°C. The mixture is stable and thawed for use in each assay. This enzyme assay has been adapted to a 96 well microtiter plate system, and has been previously described (6). Tris buffer (50 mM, pH 7.4), vehicle (solvent diluted to match the compound dilution), or compounds in vehicle are dispensed into 96-well microtiter plates (10»l/well; 3 wells/ compound). The HIV-1 RT enzyme is thawed, diluted in 50mM Tris pH 7.4 so that fifteen »l of diluted enzyme contain 0.001 Unit (one unit is that amount of enzyme to transform 1 micromole of substrate per minute at 25°C), and fifteen »l are dispensed per well. Twenty »l of 0.12-0.5M EDTA are added to the first three wells of the microtiter plate. EDTA chelates the Mg⁺⁺ present and prevents reverse transcription. This group serves as background polymerization which is subtracted from all other groups. Twenty-five ul of the 2X reaction mixture are added to all wells and the assay is allowed to incubate at room temperature for 60 minutes. The assay is terminated by precipitating the DNA in each well with 50»l of 10% trichloracetic acid (TCA) (10% w/v) in sodium pyrophosphate (1% w/v). The microtiter plate is incubated for 15 minutes at 4°C and the precipitate is fixed onto #30 glass fiber paper (Schleicher & Schuell) using a Skatron semi-automatic harvester. The filters are then washed with additional TCA (5%) containing sodium pyrophosphate (1%), rinsed with aqueous ethanol (70%), dried, and transferred to scintillation vials (6). Each vial receives 2 mls of scintillation cocktail and is counted in a Beckman beta counter.
The calculation for percent inhibition is as follows: [formula]

The nature of data set [1]: MTT Assay for Cellular Cytotoxicity. The data set is classed as cell-based. As to conditions: human; H9 cells, five days incubation, MTT read at 570nm; read-out: Cytotoxicity Assay (EC₅₀). How it is done:
In order to roughly assess the cytotoxicity of the compounds provided by the invention, several such compounds were tested in the MTT Cellular Cytotoxicity Assay described below. Compounds having a relatively high EC₅₀ are preferred.
The MTT [3-(4,5-dimethylthiazol-2-yl)-2,5 diphenyl tetrazolium bromide) assay is based on cleavage of tetrazolium bromide by metabolically active cells, resulting in a highly quantitative blue color. This assay has been previously described (1) but has been optimized for the purposes of the testing reported herein.
The H9 cell line (2), an established human lymphoma suspension cell line grown in RPMI 1640 supplemented with 10% fetal bovine serum, is used as the target cell line in the assay. Cells (100»l) are plated in microtest plate wells at a concentration of 10⁵ cells per ml in the presence of varying concentrations of inhibitor. The cells are incubated at 37°C in a humidified CO₂ incubator. Five days later, 20»l of MTT (5mg/ml in RPMI 1640, sonicated, 0.2 micron filtered, and stored at 4°C) is added to each well. After 4 hours additional incubation at 37°C, 60»l of Triton-X is added to each well and thoroughly mixed to aid the solubilization of the crystals. Absolute ethanol (5»l) is added to each well and the resulting mixture is incubated for 30 minutes at 60°C and immediately read on a plate reader (Dynatech) at a wavelength of 570nm. […]

Regarding `CCCN1C(=O)c2cccnc2Oc2ccccc21` [Example 1, 6-(n-Propyl)pyrido[2,3-b][1,5]benzoxazepin-5(6H)-one], the “RT Inhibition % @ 10 »g/ml” value on HIV-1 RT worked out at 80%. Regarding `CCN1C(=O)c2cccnc2Sc2ccccc21` [Example 2, 6-Ethylpyrido[2,3-b][1,5]benzothiazepin-5(6H)-one], at HIV-1 RT, the “RT Inhibition % @ 10 »g/ml” value stood at 89%. With `Cc1ccc2c(c1)Oc1ncc(N)cc1C(=O)N2C` [Example 3, 3-Amino-6,9-dimethylpyrido[2,3-b][1,5]benzoxazepin-5(6H)-one], the inhibition at 1 µM at HIV-1 RT is 57%. In addition, the CC50 at 120 h in data set [1] came out at 315 µM. For the compound `Cc1cc(C)c2c(c1)Oc1ncc(N)cc1C(=O)N2C` [Example 4, 3-Amino-6,7,9-trimethylpyrido[2,3-b][1,5]benzoxazepin-5(6H)-one], the inhibition at 1 µM at HIV-1 RT was determined as 92%. `CCN1C(=O)c2cc(N)cnc2Oc2cc(C)cc(C)c21` [Example 5, 3-Amino-7,9-dimethyl-6-ethylpyrido[2,3-b][1,5]benzoxazepin-5(6H)-one]: on HIV-1 RT, the inhibition at 1 µM worked out at 93%. On the same count and under the same terms, then `CCCN1C(=O)c2cc(N)cnc2Oc2cc(C)cc(C)c21` [Example 6, 3-Amino-7,9-dimethyl-6-(n-propyl)pyrido[2,3-b][1,5]benzoxazepin-5(6H)-one], with 82%. On to `CN1C(=O)c2cccnc2Oc2ccccc21` [Example 7, 6-Methylpyrido[2,3-b][1,5]benzoxazepin-5(6H)-one], for which, at HIV-1 RT, the “RT Inhibition % @ 10 »g/ml” value was found to be 71%. Take `CCN1C(=O)c2cccnc2Oc2ccccc21` [Example 8, 6-Ethylpyrido[2,3-b][1,5]benzoxazepin-5(6H)-one]: on HIV-1 RT, the “RT Inhibition % @ 10 »g/ml” value is reported as 77%. As to `C=CCN1C(=O)c2cccnc2Oc2ccccc21` [Example 9, 6-Allylpyrido[2,3-b][1,5]benzoxazepin-5(6H)-one], on HIV-1 RT, the “RT Inhibition % @ 10 »g/ml” value came out at 89%.

For the compound `CCC(=O)N1C(=O)c2cccnc2Oc2ccccc21` [Example 10, 6-Propionylpyrido[2,3-b][1,5]benzoxazepin-5(6H)-one], the “RT Inhibition % @ 10 »g/ml” value at HIV-1 RT stood at 28%. As to `Cc1ccc2c(c1)Oc1ncccc1C(=O)N2C` [Example 11, 6,9-Dimethylpyrido[2,3-b][1,5)benzoxazepin-5(6H)-one], at HIV-1 RT, the inhibition at 1 µM was 43%.

As for `CCN1C(=O)c2cccnc2Oc2cc(C)ccc21` [Example 12, 6-Ethyl-9-methylpyrido[2,3-b][1,5]benzoxazepin-5(6H)-one], the inhibition at 1 µM at HIV-1 RT turned out to be 67%. Take `Cc1ccc2c(c1)Oc1ncc(O)cc1C(=O)N2C` [Example 13, 3-Hydroxy-6,9-dimethylpyrido[2,3-b][1,5]benzoxazepin-5(6H)-one]: the inhibition at 2.5 µM on HIV-1 RT (compound at 2.5 »M (footnote †), read-out: RT Inhibition % († % inh. @ 2.5 »M)) came out at 41%.

Take `CCN1C(=O)c2cccnc2Oc2cccc(N)c21` [Example 14, 7-Amino-6-ethylpyrido[2,3-b][1,5]benzoxazepin-5(6H)-one]: at HIV-1 RT, the inhibition at 1 µM amounted to 33%. For the compound `CN1C(=O)c2cccnc2Sc2ccccc21` [Example 15, 6-Methylpyrido[2,3-b][1,5]benzothiazepin-5(6H)-one], the “RT Inhibition % @ 10 »g/ml” value on HIV-1 RT worked out at 85%.

The values above are taken from patent EP0415303B1, “Pyrido [2,3-b][1,5]benzoxazepin (and thiazepin)-5(6H)-ones and -thiones and their use in the prevention or treatment of HIV infection” (BOEHRINGER INGELHEIM PHARMACEUTICALS INC., priority 1989, dated 1991).
